Measurements from patent US9944602B2, “Piperidinone herbicides” (E. I. DU PONT DE NEMOURS AND COMPANY, priority 2014, dated 2018).

Columns and labels:
Format in all cases: in vivo
[1] = test system: ragweed (common ragweed, Ambrosia elatior); assay: Test A preemergence ragweed; settings: Ambrosia artemisiifolia, pre-emergence, 240 h, 0 to 100 scale, 0 no effect, 100 complete control, read-out: Ragweed plant response rating; for pest or weed control at 125 g/ha: 125 g ai/ha; for pest or weed control at 500 g/ha: 500 g ai/ha
Procedure, shortened: (§1)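 Compounds in non-phytotoxic solvent with surfactant, applied preemergence as directed soil spray on seeds in loam–sand blend, or postemergence to plants 2–10 cm tall at one- to two-leaf stage. Greenhouse ~10 d, then visual injury versus untreated controls, 0 (no effect) to 100 (complete control).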

corn (Zea mays) = assay: Test A postemergence corn; settings: Zea mays, post-emergence, 240 h, 0 to 100 scale, 0 is no effect, 100 is complete control; for Corn plant response rating (crop injury, 0 = no effect, 100 = complete kill) at 125 g/ha: 125 g ai/ha; for Corn plant response rating (crop injury, 0 = no effect, 100 = complete kill) at 500 g/ha: 500 g ai/ha
Procedure, shortened: as §1

[2] = test system: barnyardgrass (Echinochloa crus-galli); assay: Test A preemergence barnyardgrass; settings: Echinochloa crus-galli, pre-emergence, 240 h, 0 to 100 scale, 0 no effect, 100 complete control, read-out: Barnyardgrass plant response rating; for pest or weed control at 125 g/ha: 125 g ai/ha; for pest or weed control at 500 g/ha: 500 g ai/ha
Procedure, shortened: as §1

kochia (Kochia scoparia) [3] = assay: Test A preemergence kochia; settings: Bassia scoparia, pre-emergence, 240 h, 0 to 100 scale, 0 no effect, 100 complete control, read-out: Kochia plant response rating; for pest or weed control at 125 g/ha: 125 g ai/ha; for pest or weed control at 500 g/ha: 500 g ai/ha
Procedure, shortened: as §1

[4] = test system: galium (catchweed bedstraw, Galium aparine); assay: Test A postemergence galium; settings: Galium, post-emergence, 240 h, 0 to 100 scale, 0 is no effect, 100 is complete control, read-out: Plant response rating, Galium; for pest or weed control at 125 g/ha: 125 g ai/ha; for pest or weed control at 500 g/ha: 500 g ai/ha
Procedure, shortened: as §1

[5] = test system: barnyardgrass (Echinochloa crus-galli); assay: Test A postemergence barnyardgrass; settings: Echinochloa crus-galli, post-emergence, 240 h, 0 to 100 scale, 0 is no effect, 100 is complete control, read-out: Plant response rating, Barnyardgrass; for pest or weed control at 125 g/ha: 125 g ai/ha; for pest or weed control at 500 g/ha: 500 g ai/ha
Procedure, shortened: as §1

[6] = test system: sedge, umbrella (small-flower umbrella sedge, Cyperus difformis); assay: Test B flooded paddy test sedge, umbrella; settings: Cyperus difformis, Table B, Flood, 250 g ai/ha, scale 0 to 100, read-out: Plant response rating
Procedure, shortened: (§2)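 Once seedlings reached two leaves, pots were flooded 3 cm deep and treated via the paddy water, which remained at that level. Evaluation was visual, against controls, after 13 to 15 d under greenhouse conditions.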

rice (Oryza sativa) = assay: Test B flooded paddy test rice; settings: Oryza sativa, Table B, Flood, 250 g ai/ha, scale 0 to 100, read-out: Plant response rating
Procedure, shortened: as §2

[7] = test system: pigweed (Amaranthus retroflexus); assay: Test A preemergence pigweed; settings: Amaranthus retroflexus, pre-emergence, 240 h, 0 to 100 scale, 0 no effect, 100 complete control, read-out: Pigweed plant response rating; for pest or weed control at 125 g/ha: 125 g ai/ha; for pest or weed control at 500 g/ha: 500 g ai/ha
Procedure, shortened: as §1

[8] = test system: ryegrass, Italian (Italian ryegrass, Lolium multiflorum); assay: Test A preemergence ryegrass, Italian; settings: Lolium multiflorum, pre-emergence, 240 h, 0 to 100 scale, 0 no effect, 100 complete control, read-out: Ryegrass, Italian plant response rating; for pest or weed control at 125 g/ha: 125 g ai/ha; for pest or weed control at 500 g/ha: 500 g ai/ha
Procedure, shortened: as §1

[9] = test system: foxtail, giant (giant foxtail, Setaria faberii); assay: Test A postemergence foxtail, giant; settings: Setaria faberi, post-emergence, 240 h, 0 to 100 scale, 0 is no effect, 100 is complete control, read-out: Plant response rating, Foxtail, Giant; for pest or weed control at 125 g/ha: 125 g ai/ha; for pest or weed control at 500 g/ha: 500 g ai/ha
Procedure, shortened: as §1

[10] = test system: blackgrass (Alopecurus myosuroides); assay: Test A postemergence blackgrass; settings: Alopecurus myosuroides, post-emergence, 240 h, 0 to 100 scale, 0 is no effect, 100 is complete control, read-out: Plant response rating, Blackgrass; for pest or weed control at 125 g/ha: 125 g ai/ha; for pest or weed control at 500 g/ha: 500 g ai/ha
Procedure, shortened: as §1

[11] = test system: ryegrass, Italian (Italian ryegrass, Lolium multiflorum); assay: Test A postemergence ryegrass, Italian; settings: Lolium multiflorum, post-emergence, 240 h, 0 to 100 scale, 0 is no effect, 100 is complete control, read-out: Plant response rating, Ryegrass, Italian; for pest or weed control at 125 g/ha: 125 g ai/ha; for pest or weed control at 500 g/ha: 500 g ai/ha
Procedure, shortened: as §1

[12] = test system: barnyardgrass (Echinochloa crus-galli); assay: Test B flooded paddy test barnyardgrass; settings: Echinochloa crus-galli, Table B, Flood, 250 g ai/ha, scale 0 to 100, read-out: Plant response rating
Procedure, shortened: as §2

[13] = test system: foxtail, giant (giant foxtail, Setaria faberii); assay: Test A preemergence foxtail, giant; settings: Setaria faberi, pre-emergence, 240 h, 0 to 100 scale, 0 no effect, 100 complete control, read-out: Foxtail, Giant plant response rating; for pest or weed control at 125 g/ha: 125 g ai/ha; for pest or weed control at 500 g/ha: 500 g ai/ha
Procedure, shortened: as §1

[14] = test system: ragweed (common ragweed, Ambrosia elatior); assay: Test A postemergence ragweed; settings: Ambrosia artemisiifolia, post-emergence, 240 h, 0 to 100 scale, 0 is no effect, 100 is complete control, read-out: Plant response rating, Ragweed; for pest or weed control at 125 g/ha: 125 g ai/ha; for pest or weed control at 500 g/ha: 500 g ai/ha
Procedure, shortened: as §1

[15] = test system: ducksalad (Heteranthera limosa); assay: Test B flooded paddy test ducksalad; settings: Heteranthera limosa, Table B, Flood, 250 g ai/ha, scale 0 to 100, read-out: Plant response rating
Procedure, shortened: as §2

[16] = test system: wheat (Triticum aestivum); assay: Test A postemergence wheat; settings: Triticum aestivum, post-emergence, 240 h, 0 to 100 scale, 0 is no effect, 100 is complete control, read-out: Plant response rating, Wheat; for plant injury at 125 g/ha: 125 g ai/ha; for plant injury at 500 g/ha: 500 g ai/ha
Procedure, shortened: as §1

[17] = test system: pigweed (Amaranthus retroflexus); assay: Test A postemergence pigweed; settings: Amaranthus retroflexus, post-emergence, 240 h, 0 to 100 scale, 0 is no effect, 100 is complete control, read-out: Plant response rating, Pigweed; for pest or weed control at 125 g/ha: 125 g ai/ha; for pest or weed control at 500 g/ha: 500 g ai/ha
Procedure, shortened: as §1

kochia (Kochia scoparia) [18] = assay: Test A postemergence kochia; settings: Bassia scoparia, post-emergence, 240 h, 0 to 100 scale, 0 is no effect, 100 is complete control, read-out: Plant response rating, Kochia; for pest or weed control at 125 g/ha: 125 g ai/ha; for pest or weed control at 500 g/ha: 500 g ai/ha
Procedure, shortened: as §1

Compound	pest or weed control at 125 g/ha [1] [%]	pest or weed control at 500 g/ha [1] [%]	Corn plant response rating (crop injury, 0 = no effect, 100 = complete kill) at 125 g/ha (corn (Zea mays)) [%]	Corn plant response rating (crop injury, 0 = no effect, 100 = complete kill) at 500 g/ha (corn (Zea mays)) [%]	pest or weed control at 125 g/ha [2] [%]	pest or weed control at 500 g/ha [2] [%]	pest or weed control at 125 g/ha (kochia (Kochia scoparia) [3]) [%]	pest or weed control at 500 g/ha (kochia (Kochia scoparia) [3]) [%]	pest or weed control at 125 g/ha [4] [%]	pest or weed control at 500 g/ha [4] [%]	pest or weed control at 125 g/ha [5] [%]	pest or weed control at 500 g/ha [5] [%]	pest or weed control at 250 g/ha [6] [%]	plant injury at 250 g/ha (rice (Oryza sativa)) [%]	pest or weed control at 125 g/ha [7] [%]	pest or weed control at 500 g/ha [7] [%]	pest or weed control at 125 g/ha [8] [%]	pest or weed control at 500 g/ha [8] [%]	pest or weed control at 125 g/ha [9] [%]	pest or weed control at 500 g/ha [9] [%]	also measured
O=C1NCC[C@H](c2cccc(C(F)(F)F)c2)[C@H]1C(=O)Nc1cccc(F)c1F [Compound 21, (3R,4S)—N-(2,3-difluorophenyl)-2-oxo-4-[3-(trifluoromethyl)phenyl]-3-piperidinecarboxamide]	0	0	50	80	90	90	0	0	0	20	90	90	0	10	0	0	0	60	80	80	pest or weed control at 125 g/ha [10]: 60%; pest or weed control at 500 g/ha [10]: 80%; pest or weed control at 125 g/ha [11]: 30%; pest or weed control at 500 g/ha [11]: 40%; pest or weed control at 250 g/ha [12]: 75%; pest or weed control at 125 g/ha [13]: 90%; pest or weed control at 500 g/ha [13]: 90%; pest or weed control at 125 g/ha [14]: 0%; pest or weed control at 500 g/ha [14]: 0%; pest or weed control at 250 g/ha [15]: 100%; plant injury at 125 g/ha [16]: 0%; plant injury at 500 g/ha [16]: 60%; pest or weed control at 125 g/ha [17]: 0%; pest or weed control at 500 g/ha [17]: 20%; pest or weed control at 125 g/ha (kochia (Kochia scoparia) [18]): 0%; pest or weed control at 500 g/ha (kochia (Kochia scoparia) [18]): 0%
O=C1NCC[C@H](c2ccc(C(F)(F)F)cc2)[C@H]1C(=O)Nc1cccc(F)c1F [Compound 22, (3R,4S)—N-(2,3-difluorophenyl)-2-oxo-4-[4-(trifluoromethyl)phenyl]-3-piperidinecarboxamide]	60	80	0	60	90	90	70	80	50	70	80	90	0	0	20	50	20	60	90	90	pest or weed control at 125 g/ha [10]: 50%; pest or weed control at 500 g/ha [10]: 60%; pest or weed control at 125 g/ha [11]: 40%; pest or weed control at 500 g/ha [11]: 70%; pest or weed control at 250 g/ha [12]: 65%; pest or weed control at 125 g/ha [13]: 90%; pest or weed control at 500 g/ha [13]: 90%; pest or weed control at 125 g/ha [14]: 50%; pest or weed control at 500 g/ha [14]: 50%; pest or weed control at 250 g/ha [15]: 100%; plant injury at 125 g/ha [16]: 0%; plant injury at 500 g/ha [16]: 60%; pest or weed control at 125 g/ha [17]: 40%; pest or weed control at 500 g/ha [17]: 50%; pest or weed control at 125 g/ha (kochia (Kochia scoparia) [18]): 40%; pest or weed control at 500 g/ha (kochia (Kochia scoparia) [18]): 60%
